Data taken from article PMC5537602, “TRPA1 channel mediates organophosphate-induced delayed neuropathy” (Cell Discovery, 2017).
Where two headings read alike, the source gives them in different places.

Key:
mTRPA1 = mTRPA1 (Mus musculus, UniProt Q8BLA8); test: FDSS Ca2+-influx assay, HEK293 cells stably expressing mTRPA1; format: cell-based; design: expressed in transfected cells
Method: Ca^2+-influx assays were carried out using HEK293 cells stably expressing mTRPA1 channels with an FDSS screening system (Hamamatsu, Japan). Before the start of the assay, HEK293-mTRPA1 cells were plated onto poly-D-Lysine (40 μg ml^−1) coated 96-well black clear bottom plate with the cell density of 300 000 cells per milliliter in DMEM supplemented with 10% (vol/vol) fetal bovine serum, 200 μg ml^−1 Hygromycin B, 15 μg ml^−1 Blasticidin S HCL and 0.3 μg ml^−1 doxycycline, which could induce the expression of mTRPA1. The 96-well plate was then put in sterile incubator overnight. The following day, Ca^2+ influx dye Fluo-4/AM stock was diluted to 2 μM with bath solution, and added (50 μl per well) in place of the culture medium. The plate was then incubated to load the Fluo-4/AM into cells for 60 min at 37 °C in dark environment. During the incubation, we prepared the compound plate (96-well) and the margin of plate was set as blank control due to the fringing effect. At the end of dye loading period, the remnant dye was removed using bath solution to wash the 96-well cell plate twice and then add 80 μl bath solution per well.

hTRPA1 = target: T1, hTRPA1 (Homo sapiens, UniProt O75762); test: cell-based; format: cell-based; conditions: for activation of hTRPA1 whole-cell currents: 30 μM, calcium-free external solution; for activation of hTRPA1 whole-cell currents by NTE inhibitors: 100 μM
T1 construct: expressed in transfected cells; host or cells: HEK293, transient, EGFP plasmid co-transfected
T1 sequence (O75762 whole entry): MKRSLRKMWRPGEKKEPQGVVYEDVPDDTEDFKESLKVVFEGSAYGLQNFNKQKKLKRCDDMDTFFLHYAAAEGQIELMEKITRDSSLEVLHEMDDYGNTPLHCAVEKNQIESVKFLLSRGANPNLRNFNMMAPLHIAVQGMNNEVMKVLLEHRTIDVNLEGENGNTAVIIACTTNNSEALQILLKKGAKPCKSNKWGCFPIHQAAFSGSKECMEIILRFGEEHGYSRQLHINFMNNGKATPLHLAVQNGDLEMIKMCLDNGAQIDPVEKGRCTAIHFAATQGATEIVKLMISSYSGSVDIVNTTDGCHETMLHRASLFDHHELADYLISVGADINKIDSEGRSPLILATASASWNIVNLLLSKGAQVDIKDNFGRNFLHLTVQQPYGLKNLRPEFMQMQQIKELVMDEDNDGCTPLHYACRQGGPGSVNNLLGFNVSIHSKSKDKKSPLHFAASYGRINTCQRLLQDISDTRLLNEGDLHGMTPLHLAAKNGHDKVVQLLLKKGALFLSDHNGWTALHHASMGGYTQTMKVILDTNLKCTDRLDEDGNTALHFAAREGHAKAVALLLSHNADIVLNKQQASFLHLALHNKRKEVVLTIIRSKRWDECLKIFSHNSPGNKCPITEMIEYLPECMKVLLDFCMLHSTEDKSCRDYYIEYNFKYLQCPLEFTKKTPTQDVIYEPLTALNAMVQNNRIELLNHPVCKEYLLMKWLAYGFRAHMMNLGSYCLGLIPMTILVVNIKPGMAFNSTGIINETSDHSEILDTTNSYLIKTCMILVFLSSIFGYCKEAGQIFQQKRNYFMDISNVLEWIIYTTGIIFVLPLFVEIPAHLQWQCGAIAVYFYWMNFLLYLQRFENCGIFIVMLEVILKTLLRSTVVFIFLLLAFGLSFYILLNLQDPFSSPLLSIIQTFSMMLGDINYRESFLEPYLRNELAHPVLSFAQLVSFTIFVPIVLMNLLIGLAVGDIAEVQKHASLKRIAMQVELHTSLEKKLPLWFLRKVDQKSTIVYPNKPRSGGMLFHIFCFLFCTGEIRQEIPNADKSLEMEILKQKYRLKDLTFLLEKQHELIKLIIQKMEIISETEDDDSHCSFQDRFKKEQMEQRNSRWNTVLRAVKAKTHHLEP
Method: Human embryonic kidney 293 (HEK293) cells were cultured in DMEM containing 10% (vol/vol) heat-inactivated fetal bovine serum, 100 units ml^−1 penicillin–streptomycin and 2 mM L-glutamine at 37 °C in a humidity-controlled sterile incubator with 5% CO2. All cell culture reagents were purchased from Life Technologies. HEK293 cells were transfected transiently with the corresponding plasmids using lipofectamine 2000 (Life Technologies). Transfection efficiency was monitored by co-transfecting EGFP plasmid which codes for the enhanced green fluorescent protein. Electrophysiological recordings were performed between 24 and 36 h after transfection.
(§1) Whole-cell patch-clamp recordings in DRG neurons (small diameter, […]) and HEK293 cells were operated at room temperature (23–25 °C) using EPC-10 amplifier and Patch Master Software (HEKA). […] Currents were sampled at 10 kHz and low-pass filtered at 2.9 kHz. The internal solution was as follows (in mM): 140 CsCl, 10 HEPES, 5 EGTA, 0.1 CaCl2 and 1 MgCl2, with pH adjusted to 7.2 by CsOH and osmolarity 295–300 mOsm. The calcium-free external solution contained (in mM) 140 NaCl, 5 KCl, 0.5 EGTA, 1 MgCl2, 10 Glucose and 10 HEPES, with pH adjusted to 7.4 by NaOH and osmolarity 300–310 mOsm. The 0.5 mM EGTA was replaced by 2 mM CaCl2 for the recordings in DRG neurons. TRPA1 currents development was monitored with repetitive injections of 300 ms duration voltage ramps from −100 to +100 mV every 2 s and the holding potential was set to 0 mV for 50 ms, existing in both sides of the voltage ramp. To record inward currents in DRG neurons, we conducted voltage clamp at holding membrane potential of −70 mV. Solutions were switched using a gravity-fed continuous focal perfusion system.

mouse DRG neurons [1] = test: Single-cell calcium imaging (Fura-2/AM) of isolated DRG neurons; format: cell-based
Method: (§2) DRG neurons were isolated from young C57 BL/6 mice (4–5 weeks). The sections of thoracic and lumbar DRG neurons were rapidly isolated in calcium and magnesium-free PBS with low temperature conditions (ice-bath environment). The isolated tissues were cut into pieces with scissor and incubated for 30 min with 0.1% collagenase and 0.025% trypsin which were diluted by DMEM-F12 at 37 °C. After digestion, neurons were gently dissociated using Pasteur pipettes and then plated onto poly-D-lysine pre-coated glass cover slips. DRG neurons were cultured for 24 h before use.
Calcium influx signals were monitored using the ratio metric fluorescent indicator dye Fura-2/AM at room temperature (23–25 °C). Cells were incubated with 2 μM Fura-2/AM, which was generated by diluting the stock solution with normal external solution, for 30 min at 37 °C. […] The maximum excitation wave length of Fura-2/AM was changed to 340 nm from 380 nm when combined with calcium ions. Fura-2/AM was excited at 340 and 380 nm with a rapid switching monochromator obtained from TILL Photonics, and the mean fluorescence intensity ratios (F340/F380) reflected real-time changes in the concentration of intracellular free calcium ions. The external solution used in the DRG whole-cell patch-clamp recordings was also used for calcium imaging. Solutions were switched using a gravity-fed continuous focal perfusion system.

mice [2] = test: Transmission electron microscopy of local nerve fibers in mice; format: in vivo, mouse; conditions: WT mice; plantar injection, 5% AITC or 30% malathion
Method: For mice, subcutaneous tissue from the site of exposure was removed and fixed by immediate immersion in ice-cold 2.5% glutaraldehyde. Subsequently, the samples were post-fixed in 1% OsO4 for 1 h, dehydrated with an ethanol series and embedded in epon resin. Sixty-nanometer ultra-thin sections were double stained with lead citrate and uranyl acetate and examined using an electron microscopy.

mice [3] = test: Behavioral testing of mice (paw-licking time after intraplantar injection); format: in vivo, mouse; conditions: WT mice; AITC 10 μl 5%, malathion 10 μl 30%, intraplantar
Method: The chosen mice were allowed to acclimate to the experimental environment for at least 2 h before testing. Intraplantar injection of 5% AITC and 30% malathion (10 μl) was achieved using separate injectors. Spontaneous pain evoked by the compounds was assessed by measuring the time (s) the mice spent on licking. For the HC030031 groups, 200 mg kg^−1 HC030031 was intragastrically administered, and then the test was conducted after 1 h. The testing phase was divided into two parts: 0–10 min and 11–60 min.

mouse DRG neurons [4] = test: Whole-cell patch-clamp of small-diameter DRG neurons; format: cell-based
Method: as §2, §1

cTRPA1 = target: T2, cTRPA1 (Gallus gallus, UniProt W8VTH6); test: Whole-cell patch-clamp, HEK293 cells expressing cTRPA1; format: cell-based, chicken
T2 sequence (W8VTH6 1-1126): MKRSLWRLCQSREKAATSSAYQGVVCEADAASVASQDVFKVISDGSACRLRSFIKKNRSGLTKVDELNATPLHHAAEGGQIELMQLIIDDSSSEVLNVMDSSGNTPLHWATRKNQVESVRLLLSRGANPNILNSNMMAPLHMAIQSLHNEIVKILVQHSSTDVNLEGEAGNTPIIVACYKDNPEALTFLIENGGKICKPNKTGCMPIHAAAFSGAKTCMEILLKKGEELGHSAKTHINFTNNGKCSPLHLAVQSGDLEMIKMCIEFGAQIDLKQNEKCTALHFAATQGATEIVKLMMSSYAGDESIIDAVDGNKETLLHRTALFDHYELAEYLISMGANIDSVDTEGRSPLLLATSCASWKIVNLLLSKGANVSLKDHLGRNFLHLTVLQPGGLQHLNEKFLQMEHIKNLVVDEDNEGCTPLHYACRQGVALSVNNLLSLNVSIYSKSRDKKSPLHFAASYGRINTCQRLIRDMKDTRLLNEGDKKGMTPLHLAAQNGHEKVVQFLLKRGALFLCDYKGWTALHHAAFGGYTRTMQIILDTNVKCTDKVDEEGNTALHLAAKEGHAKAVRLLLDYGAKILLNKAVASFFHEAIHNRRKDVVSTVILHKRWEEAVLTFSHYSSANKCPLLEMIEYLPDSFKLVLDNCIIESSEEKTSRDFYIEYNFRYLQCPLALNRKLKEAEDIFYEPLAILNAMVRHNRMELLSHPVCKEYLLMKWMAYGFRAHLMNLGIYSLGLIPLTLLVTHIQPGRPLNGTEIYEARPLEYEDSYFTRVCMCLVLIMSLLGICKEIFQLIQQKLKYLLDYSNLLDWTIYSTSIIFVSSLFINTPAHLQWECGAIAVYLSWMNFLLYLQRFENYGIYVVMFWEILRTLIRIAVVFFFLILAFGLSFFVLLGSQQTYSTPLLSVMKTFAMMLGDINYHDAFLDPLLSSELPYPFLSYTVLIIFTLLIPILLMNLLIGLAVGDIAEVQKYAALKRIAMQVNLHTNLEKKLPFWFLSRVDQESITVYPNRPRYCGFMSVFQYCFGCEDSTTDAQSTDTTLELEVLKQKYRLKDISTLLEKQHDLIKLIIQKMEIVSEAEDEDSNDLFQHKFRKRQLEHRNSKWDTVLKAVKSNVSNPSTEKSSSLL
Method: All cell culture reagents were purchased from Life Technologies. HEK293 cells were transfected transiently with the corresponding plasmids using lipofectamine 2000 (Life Technologies). Transfection efficiency was monitored by co-transfecting EGFP plasmid which codes for the enhanced green fluorescent protein. Electrophysiological recordings were performed between 24 and 36 h after transfection.
as §1, with “The internal solution was as follows (in mM): 140 CsCl, 10 HEPES, 5 EGTA, 0.1 CaCl2 and 1 MgCl2, with pH adjusted to 7.2 by CsOH and osmolarity 295–300 mOsm.” left out

hens = format: in vivo, hen
Method: The chosen adult Hyline Brown hens were raised individually in stainless steel wire cages. After 7 days of acclimatization, the chosen hens were randomly divided into groups (n=6–10 for each group). The hens in the delayed neuropathy groups were administered a single dose of 750 mg kg^−1 TOCP and repeated doses of 75 mg kg^−1 malathion by gavage. TOCP and malathion were dissolved in corn oil and administered at 0.65 ml kg^−1. In the HC030031 treatment groups, 100 mg kg^−1 HC030031 was administered by gavage daily beginning at day 0 or day 11. All hens were examined daily for signs of delayed neurotoxicity. A five-point graded scale was used to describe the clinical symptoms of delayed neuropathy, with 0 indicating normal ambulation; (1) suspected ataxia (lack of strength in the legs and tottering); (2) mild ataxia (slow, clumsy and unsteady gait); (3) gross ataxia (waddling gait and staggering and falling despite being active); (4) mild paralysis (typical paralytic posture and lame appearance); and (5) complete paralysis (unable to maintain posture, stand up or move at all), as described previously.

mTRPA1, sequence (Q8BLA8 whole entry): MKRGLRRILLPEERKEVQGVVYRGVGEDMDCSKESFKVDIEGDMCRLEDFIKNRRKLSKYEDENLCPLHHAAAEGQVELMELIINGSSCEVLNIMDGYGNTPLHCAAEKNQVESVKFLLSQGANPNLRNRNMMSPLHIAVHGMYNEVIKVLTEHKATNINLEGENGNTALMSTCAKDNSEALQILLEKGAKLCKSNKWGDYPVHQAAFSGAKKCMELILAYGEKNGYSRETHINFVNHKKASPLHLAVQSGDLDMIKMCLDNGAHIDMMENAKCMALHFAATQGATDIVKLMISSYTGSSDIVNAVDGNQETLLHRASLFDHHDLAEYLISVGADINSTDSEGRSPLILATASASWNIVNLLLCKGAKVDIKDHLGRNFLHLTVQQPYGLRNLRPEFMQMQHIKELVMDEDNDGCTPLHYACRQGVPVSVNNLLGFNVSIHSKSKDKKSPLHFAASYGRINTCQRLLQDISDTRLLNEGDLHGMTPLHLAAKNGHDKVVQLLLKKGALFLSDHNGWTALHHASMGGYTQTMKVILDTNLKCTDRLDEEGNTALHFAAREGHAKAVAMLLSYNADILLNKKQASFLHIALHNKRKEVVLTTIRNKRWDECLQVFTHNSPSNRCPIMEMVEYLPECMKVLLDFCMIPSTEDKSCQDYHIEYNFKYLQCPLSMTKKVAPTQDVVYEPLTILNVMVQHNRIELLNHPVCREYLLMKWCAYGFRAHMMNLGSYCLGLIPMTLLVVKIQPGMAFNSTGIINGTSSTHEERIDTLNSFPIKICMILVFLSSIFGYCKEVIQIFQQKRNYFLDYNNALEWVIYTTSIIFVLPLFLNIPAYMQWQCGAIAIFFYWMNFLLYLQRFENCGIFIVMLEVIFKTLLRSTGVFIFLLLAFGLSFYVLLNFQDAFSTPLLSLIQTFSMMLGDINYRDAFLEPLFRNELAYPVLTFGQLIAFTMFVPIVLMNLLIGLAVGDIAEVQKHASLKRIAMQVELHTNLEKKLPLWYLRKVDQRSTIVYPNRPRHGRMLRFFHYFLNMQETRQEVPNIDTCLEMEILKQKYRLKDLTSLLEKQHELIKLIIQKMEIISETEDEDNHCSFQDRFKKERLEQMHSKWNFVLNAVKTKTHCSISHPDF

Compound	EC50 (mTRPA1) [µM]	activation of hTRPA1 whole-cell currents (hTRPA1)	activation of hTRPA1 whole-cell currents by NTE inhibitors (hTRPA1)	further results
COP(=O)(OC)OC(Br)C(Cl)(Cl)Br (stereo not shown) [naled]	10 to 40	activated	–	–
CCOC(=O)OCC [Ethyl carbonate]	–	–	activated	–
COc1nn(CSP(=S)(OC)OC)c(=O)s1 [methidathion]	10 to 40	activated	–	–
C=CCN=C=S [AITC, allyl isothiocyanate]	–	activated	–	[Ca2+]i response of DRG neurons from Trpa1−/− mice (mouse DRG neurons [1]; Trpa1−/− neurons): thoroughly unresponsive; neurons displaying a robust increase in [Ca2+]i (mouse DRG neurons [1]; wild-type small-diameter neurons, sequential application of AITC and malathion, 197/451): ~ 44%; nerve fiber damage around the injection site (TEM) (mice [2]): damage of the myelin sheath; nocifensive behavior (paw-licking) after plantar injection (mice [3]): nociception-like response; action potential firing in WT small-diameter neurons (mouse DRG neurons [4]; 100 μM): bursts of action potentials; currents in neurons from Trpa1−/− mice (mouse DRG neurons [4]; Trpa1−/− neurons, 17/17): failed to induce currents
O=S(=O)(Cl)c1ccccc1 [Benzenesulfonyl chloride]	–	–	activated	–
CN1CCC(=C2c3ccccc3CC(=O)c3sccc32)CC1 [ketotifen]	–	–	–	IC50 (cTRPA1): 5.79 ± 1.18 µM; effect on TOCP-induced symptoms (OPIDN scores) (hens; hens, 100 mg kg−1 daily by gavage from day 0): significantly alleviated
CCSC(=O)N(CC(C)C)CC(C)C [Butylate]	–	–	activated	–
COP(=S)(OC)Oc1ccc(SC)c(C)c1 [fenthion]	10 to 40	activated	–	–
CCOP(=S)(OCC)Oc1nc(Cl)c(Cl)cc1Cl [chlorpyrifos]	–	activated	–	EC50 (mTRPA1; HEK293 cells, change in [Ca2+]i, read-out: EC50, activation of mTRPA1): 10 to 40 µM
CNCC[C@H](Oc1cccc2ccccc12)c1cccs1 [duloxetine]	–	–	–	IC50 (cTRPA1; manual whole-cell patch-clamp, TOCP-induced currents, read-out: IC50 on cTRPA1 channels): 4.69 ± 1.4 µM; effect on TOCP-induced symptoms (OPIDN scores) (hens; in vivo): significantly alleviated
CCOP(=S)(OCC)O/N=C(\C#N)c1ccccc1 [phoxim]	10 to 40	activated	–	–
O=S(=O)(Cl)Cc1ccccc1 [Phenylmethanesulfonyl chloride]	–	–	activated	–
